{
  "source": "patent US8138338B2",
  "about": "“Aurora kinase inhibitors from an encoded small molecule library” (GlaxoSmithKline LLC, priority 2006, dated 2012)",
  "data": [
    {"tested_on": "secretion of TNF-α from LPS-stimulated human monocytes", "assay": "LPS-induced TNF-alpha production in human THP-1 cell line", "format": "cell-based", "conditions": "LPS-stimulated human monocytes (THP-1), 4 hr; read-out: EC50 for inhibition of TNF-α secretion", "protocol": "THP-1 (human, monocytic) cell line was purchased from the American Type Culture Collection (ATCC, Cat. No. TIB 202). Cell line was passaged three times per week in RPMI 1640 (GIBCO), supplemented with 10% heat-inactivated fetal bovine serum (FBS; Omega Scientific, Tarzana, Calif.), 2 mM L-glutamine, 100 U/ml penicillin and 100 μg/ml streptomycin (Gibco/Invitrogen, Carlsbad, Calif.) in a humidified incubator with 95% air and 5% CO2 at 37° C.\nFor the assay THP-1 cells were harvested, counted and suspended at 1E6 cells/ml in culture medium. […] of cell suspension was added to each well at 96 well plates to provide density of 2×10^5 cells per well. Serial dilutions of P38 compounds were prepared at final concentrations in culture medium from a 10 mM stock solution, and assayed in triplicate. Vehicle was prepared by adjusting culture medium to 0.1% v/v DMSO which corresponds to the concentration of DMSO in the wells with test compounds.\nCells were incubated in presence of the P38 inhibitor for 30 min. After that cells were stimulated with LPS (E. coli 026:B6, 1 μg/ml) for 4 hr at 37° C. in a 5% CO2-incubator. Reaction was stopped by placing samples on ice and centrifuging for 10 min at 1500×g at 4° C. Cell supernatants were harvested and concentration of TNF- was determined by ELISA (BD Pharmingen, San Diego, Calif., Cat. No. 555212), following the manufacturer's instruction. Absorbance read and analyzed at 450 nm on a spectrophotometric ELISA plate reader (Labsystems Multiskan MCC/340). Replicate readings were averaged and the results are expressed as a percent of OD signal from control.", "units": {"EC50": "µM"}, "values": [
      {"smiles": "CONC(=O)c1ccc(C)c(Nc2nc(NCc3cccc(C)c3)nc(N[C@H](C)C(C)(C)C)n2)c1", "note": "[Compound 12]", "EC50": 0.122},
      {"smiles": "CONC(=O)c1ccc(C)c(Nc2nc(NCC3CCCC(CN)C3)nc(NC3CCCCC3)n2)c1", "note": "(stereo not shown) [Compound 11]", "EC50": 0.011},
      {"smiles": "CONC(=O)c1ccc(C)c(Nc2nc(NCC3CCCC(CN)C3)nc(NC3CCCCC3C)n2)c1", "note": "(stereo not shown) [Compound 10]", "EC50": 0.022}
    ]},
    {"tested_on": "HCT116 (human colorectal cancer cells)", "assay": "Cell proliferation assay (MTT) using HCT-116 cell line", "format": "cell-based", "conditions": "72 h, human carcinoma cell line HCT-116, three days", "protocol": "Cell proliferation assay for Aurora-A compounds using HCT-116 Cell Line HCT116 (human colorectal cancer cells) was obtained from the American Type Culture Collection (Cat. No. CCL-247, Rockville, Md.). Cells were maintained in monolayer culture in McCoy's 5A supplemented with 10% fetal bovine serum (FBS; Omega Scientific, Tarzana, Calif.), 2 mM L-glutamine, 50 IU/ml penicillin and 50 μg/ml streptomycin (Gibco/Invitrogen, Carlsbad, Calif.) in a humidified incubator with 95% air and 5% CO2 at 37° C.\nA single cell suspension was prepared by trypsinization, to provide 1.25E4 cells per mL in their respective culture medium. 96 well plates were seeded with 200 μl/well of the cell suspension to provide an initial seeding density of 2500 cells per well. The plates were placed in a tissue culture incubator (5% CO2, 37° C.) overnight to let cells become adherent.\nSerial dilutions of the testing compounds were prepared at final concentrations in culture medium from a 10 mM stock solution, and assayed in triplicate. The vehicle was prepared by adjusting culture medium to 0.1% v/v DMSO which corresponds to the concentration of DMSO in the wells with test compounds. Test plates were then placed in a tissue culture incubator (5% CO2, 37° C.) for three days after which the MTT assay was performed.\nThe MTT assay is a measure of cell viability based on cellular dehydrogenase enzymatic cleavage of the tetrazolium rings in MTT the product of which is measured spectrophotometrically. A 25 μL aliquot of 5 mg/mL MTT (3′[4,5-dimethylthiazol-2-yl]-2,5-diphenyl-tetrazolium bromide, Sigma Cat. No. M2128) prepared in PBS was added directly to the wells. The plates were incubated at 37° C. for two hours, the MTT solution was removed, 150 μL of isopropanol was added to each well, and the plates were rocked at room temperature for 10 minutes. The optical density of the wells was quantitated with a Labsystems Multiskan plate spectrophotometer at 570 nm. Replicate readings were averaged. The results are expressed as a percent of OD signal from control.", "units": {"EC50": "µM"}, "values": [
      {"smiles": "C=CCN(c1nc(NCCc2c[nH]c3ncccc23)nc(NCc2cccn2C)n1)C1CCCCC1", "note": "[Compound 3]", "EC50": 10},
      {"smiles": "CCCCN(C)c1nc(NCCc2ccccc2OC)nc(NCCc2c[nH]c3ncccc23)n1", "note": "[Compound 2]", "EC50": 3.6},
      {"smiles": "CCCCN(C)c1nc(NCCc2ccccc2OC)nc(NC(Cc2c[nH]c3ncccc23)C(N)=O)n1", "note": "(stereo not shown) [Compound 1]", "EC50": 3.6},
      {"smiles": "COc1ccc(Nc2nc(Nc3ccc4ncccc4c3)nc(NC(Cc3c[nH]c4ncccc34)C(N)=O)n2)cc1OC", "note": "(stereo not shown) [Compound 7]", "EC50": 10}
    ]}
  ]
}
